In PubChem BioAssay AID330 (DTP/NCI, 2004):
Several values for one entry are separate records, joined by “and”; a condition that tells them apart may be missing. Identical values can stand only once. Toxic doses and inconclusive results are not listed. How the source made its calls: active means survival T/C of 150% or more; inactive means T/C below 125% in these data.

Tested on: P388 leukemia ip, CD2F1 mice, survival T/C
Test: NCI In Vivo Anticancer Drug Screen. Data for tumor model P388 Leukemia (intraperitoneal) in CD2F1 (CDF1) mice
Conditions: endpoint: median survival time, higher = longer survival
In short: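 Mice carrying the transplanted tumor received test compound or vehicle. Survival was recorded in each group, and the value is the treated-group measurement divided by that of the vehicle-treated control group.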

[1] = dose: 12.5 mg/kg/injection, schedule: Q01DX009 (ip), vehicle: saline
[2] = dose: 25.0 mg/kg/injection, schedule: Q01DX009 (ip), vehicle: saline
[3] = dose: 50.0 mg/kg/injection, schedule: Q01DX009 (ip), vehicle: saline
[4] = dose: 50.0 mg/kg/injection, schedule: Q01DX009 (ip), vehicle: saline with Tween-80
[5] = dose: 100.0 mg/kg/injection, schedule: Q01DX009 (ip), vehicle: saline with Tween-80
[6] = dose: 200.0 mg/kg/injection, schedule: Q01DX009 (ip), vehicle: saline with Tween-80
[7] = dose: 400.0 mg/kg/injection, schedule: Q01DX009 (ip), vehicle: Klucel (hydroxypropylcellulose) (HPC)
[8] = dose: 60.0 mg/kg/injection, schedule: Q01DX005 (ip), vehicle: saline with Tween-80
[9] = dose: 120.0 mg/kg/injection, schedule: Q01DX005 (ip), vehicle: saline with Tween-80
[10] = dose: 240.0 mg/kg/injection, schedule: Q01DX005 (ip), vehicle: saline with Tween-80
[11] = dose: 50.0 mg/kg/injection, schedule: Q01DX005 (ip), vehicle: Klucel (hydroxypropylcellulose) (HPC)
[12] = dose: 100.0 mg/kg/injection, schedule: Q01DX005 (ip), vehicle: Klucel (hydroxypropylcellulose) (HPC)
[13] = dose: 200.0 mg/kg/injection, schedule: Q01DX005 (ip), vehicle: Klucel (hydroxypropylcellulose) (HPC)
[14] = dose: 50.0 mg/kg/injection, schedule: Q01DX005 (ip), vehicle: saline with Tween-80
[15] = dose: 100.0 mg/kg/injection, schedule: Q01DX005 (ip), vehicle: saline with Tween-80
[16] = dose: 200.0 mg/kg/injection, schedule: Q01DX005 (ip), vehicle: saline with Tween-80
[17] = dose: 100.0 mg/kg/injection, schedule: Q01DX009 (ip), vehicle: saline
[18] = dose: 50.0 mg/kg/injection, schedule: Q01DX005 (ip), vehicle: saline
[19] = dose: 100.0 mg/kg/injection, schedule: Q01DX005 (ip), vehicle: saline
[20] = dose: 100.0 mg/kg/injection, schedule: Q01DX001 (ip), vehicle: saline with Tween-80

Measured: T/C

C[N+]12CC[N+](C)(CC1)CC2
inactive: [1] 101 % of control | [2] 109 % of control | [3] 115 % of control

O=CNNc1cccc(Cl)n1
inactive: dose: 100.0 mg/kg/injection, schedule: Q01DX001 (ip), vehicle: Klucel (hydroxypropylcellulose) (HPC) 97 % of control | dose: 200.0 mg/kg/injection, schedule: Q01DX001 (ip), vehicle: Klucel (hydroxypropylcellulose) (HPC) 97 % of control | dose: 400.0 mg/kg/injection, schedule: Q01DX001 (ip), vehicle: Klucel (hydroxypropylcellulose) (HPC) 98 % of control

CC1(C)CC2(OC2c2ccc([N+](=O)[O-])cc2)C(=O)c2ccccc21 (centres undefined)
inactive: dose: 0.78 mg/kg/injection, schedule: Q01DX009 (ip), vehicle: Klucel (hydroxypropylcellulose) (HPC) 87 % of control | dose: 1.56 mg/kg/injection, schedule: Q01DX009 (ip), vehicle: Klucel (hydroxypropylcellulose) (HPC) 88 % of control | dose: 3.13 mg/kg/injection, schedule: Q01DX009 (ip), vehicle: Klucel (hydroxypropylcellulose) (HPC) 90 % of control | [4] 100 % of control | [5] 90 % of control | [6] 95 % of control | [7] 93 % of control

c1ccc2c(c1)nc1cc(NC3CCCCC3)c(=NC3CCCCC3)cc-1n2C1CCCCC1
inactive: [8] 87 % of control | [9] 91 % of control | [10] 89 % of control

O=C1CC2(C(=O)N1)c1ccccc1-c1ccccc12
inactive: [4] 96 % of control | [5] 103 % of control | [6] 119 % of control

O=C(Oc1ccc[nH]c1=O)C1CCCCC1
inactive: [11] 108 % of control and 96 % of control | [12] 100 % of control and 89 % of control | [13] 102 % of control and 86 % of control | dose: 400.0 mg/kg/injection, schedule: Q01DX005 (ip), vehicle: Klucel (hydroxypropylcellulose) (HPC) 92 % of control and 97 % of control

C=CCC1=C(C2CO2)C(=O)c2ccccc2C1=O (centres undefined)
inactive: dose: 6.25 mg/kg/injection, schedule: Q01DX005 (ip), vehicle: Klucel (hydroxypropylcellulose) (HPC) 99 % of control | dose: 12.5 mg/kg/injection, schedule: Q01DX005 (ip), vehicle: Klucel (hydroxypropylcellulose) (HPC) 99 % of control

CN(CC(=O)NN)c1ccccc1
inactive: [14] 93 % of control | [15] 95 % of control | [16] 95 % of control

COc1cccc2c1C(=O)c1c(O)c3c(c(O)c1C2=O)CC(O)(C(C)=O)CC3OC1CC(NC(=O)C(F)(F)F)C(OC(=O)c2ccc([N+](=O)[O-])cc2)C(CNC(=O)C(F)(F)F)O1 (centres undefined)
inactive: dose: 3.13 mg/kg/injection, schedule: Q04DX003 (ip), vehicle: distilled water + Tween-80 92 % of control | dose: 6.25 mg/kg/injection, schedule: Q04DX003 (ip), vehicle: distilled water + Tween-80 100 % of control | dose: 12.5 mg/kg/injection, schedule: Q04DX003 (ip), vehicle: distilled water + Tween-80 96 % of control | dose: 25.0 mg/kg/injection, schedule: Q04DX003 (ip), vehicle: distilled water + Tween-80 96 % of control | dose: 50.0 mg/kg/injection, schedule: Q04DX003 (ip), vehicle: distilled water + Tween-80 100 % of control

CCCCNC(=O)OCc1c(COC(=O)NCCCC)c(-c2ccc(Cl)c(Cl)c2)n2c1CCC2
active: dose: 25.0 mg/kg/injection, schedule: Q01DX009 (ip), vehicle: saline with Tween-80 153 % of control and 159 % of control | [4] 150 % of control and 171 % of control | [6] 163 % of control

CCCCCCCCCCOC(=O)CC(C)=O.CCCCCCCCCCOC(=O)CC(C)=O.[Ni+2]
inactive: [1] 98 % of control | [2] 100 % of control | [3] 98 % of control and 91 % of control | [17] 86 % of control

COc1cccc2[se]c(C(=O)O)cc12
inactive: [3] 92 % of control | [17] 89 % of control

COc1cc(CCN=Cc2cccnc2)c([N+](=O)[O-])cc1OC
inactive: [11] 101 % of control | [12] 100 % of control | [13] 100 % of control

O=NN(CCCl)C(=O)Nc1c[nH]c2ccccc12
active: dose: 25.0 mg/kg/injection, schedule: Q01DX009 (ip), vehicle: Klucel (hydroxypropylcellulose) (HPC) 157 % of control | dose: 50.0 mg/kg/injection, schedule: Q01DX009 (ip), vehicle: Klucel (hydroxypropylcellulose) (HPC) 159 % of control and 166 % of control | dose: 100.0 mg/kg/injection, schedule: Q01DX009 (ip), vehicle: Klucel (hydroxypropylcellulose) (HPC) 166 % of control and 176 % of control | dose: 200.0 mg/kg/injection, schedule: Q01DX009 (ip), vehicle: Klucel (hydroxypropylcellulose) (HPC) 166 % of control and 175 % of control | [7] 166 % of control and 176 % of control

COc1cc2c(cc1OC)C1=C(CC2)C2CCCN2CC1 (centres undefined)
inactive: dose: 12.5 mg/kg/injection, schedule: Q04DX003 (ip), vehicle: saline 104 % of control | dose: 25.0 mg/kg/injection, schedule: Q04DX003 (ip), vehicle: saline 100 % of control

O=C1CCS(=O)(=O)c2ccccc21
inactive: [4] 100 % of control

CCOC(=O)N1C=CN(C(=O)OCC)C1c1nccn1C(=O)OCC
inactive: [4] 100 % of control | [5] 96 % of control | [6] 105 % of control

S=c1sc2ccccc2n1CCNc1ccccc1
inactive: [5] 90 % of control | dose: 100.0 mg/kg/injection, schedule: Q04DX003 (ip), vehicle: saline with Tween-80 90 % of control | [6] 90 % of control | dose: 200.0 mg/kg/injection, schedule: Q04DX003 (ip), vehicle: saline with Tween-80 95 % of control | dose: 400.0 mg/kg/injection, schedule: Q01DX009 (ip), vehicle: saline with Tween-80 86 % of control | dose: 400.0 mg/kg/injection, schedule: Q04DX003 (ip), vehicle: saline with Tween-80 104 % of control

CN(C/C(=N/O)c1ccccc1)C(=O)c1ccccc1
inactive: [18] 98 % of control | [19] 100 % of control | dose: 200.0 mg/kg/injection, schedule: Q01DX005 (ip), vehicle: saline 97 % of control

CCOC(=O)c1c(C)c2c(n1C)CCc1sc(N)nc1-2
inactive: dose: 50.0 mg/kg/injection, schedule: Q04DX003 (ip), vehicle: Klucel (hydroxypropylcellulose) (HPC) 100 % of control | dose: 100.0 mg/kg/injection, schedule: Q04DX003 (ip), vehicle: Klucel (hydroxypropylcellulose) (HPC) 101 % of control | dose: 200.0 mg/kg/injection, schedule: Q04DX003 (ip), vehicle: Klucel (hydroxypropylcellulose) (HPC) 94 % of control

C=C1C(=O)C23C(O)CC4C(C)(C)[C@@H](OC(C)=O)CCC4(C)[C@]2(O)CCC1[C@@H]3O (some centres undefined)
inactive: dose: 5.0 mg/kg/injection, schedule: Q01DX005 (ip), vehicle: Klucel (hydroxypropylcellulose) (HPC) 106 % of control | dose: 10.0 mg/kg/injection, schedule: Q01DX005 (ip), vehicle: Klucel (hydroxypropylcellulose) (HPC) 110 % of control | dose: 20.0 mg/kg/injection, schedule: Q01DX005 (ip), vehicle: Klucel (hydroxypropylcellulose) (HPC) 112 % of control | dose: 40.0 mg/kg/injection, schedule: Q01DX005 (ip), vehicle: Klucel (hydroxypropylcellulose) (HPC) 114 % of control

CN(C)CCCN1CN(CCCN(C)C)CN(CCCN(C)C)C1
inactive: [18] 99 % of control | [19] 103 % of control

CCOC1(C(C)O)CC(c2ccccc2)=NO1 (centres undefined)
inactive: [8] 108 % of control | [9] 101 % of control | [10] 100 % of control

Clc1ccc(-c2nnc3ncccn23)cc1
inactive: [20] 96 % of control | dose: 200.0 mg/kg/injection, schedule: Q01DX001 (ip), vehicle: saline with Tween-80 105 % of control

Cc1cnc2ncn(Cc3c[nH]c(=O)[nH]c3=O)c(=O)c2c1
inactive: dose: 12.5 mg/kg/injection, schedule: Q01DX001 (ip), vehicle: saline with Tween-80 110 % of control | dose: 25.0 mg/kg/injection, schedule: Q01DX001 (ip), vehicle: saline with Tween-80 107 % of control | dose: 50.0 mg/kg/injection, schedule: Q01DX001 (ip), vehicle: saline with Tween-80 104 % of control | [20] 104 % of control

CC(C)CNC(=O)c1ccccc1C(=O)NC1(C(=O)NCC(C)C)CCCC1
inactive: [14] 87 % of control | [15] 86 % of control | [16] 94 % of control

COC(=O)/C(C)=C\n1ccccc1=O
inactive: dose: 60.0 mg/kg/injection, schedule: Q01DX005 (ip), vehicle: saline 97 % of control | dose: 120.0 mg/kg/injection, schedule: Q01DX005 (ip), vehicle: saline 99 % of control | dose: 240.0 mg/kg/injection, schedule: Q01DX005 (ip), vehicle: saline 98 % of control
